Laboratory results reported in PMC11945486, “TAS1R2/TAS1R3 Single-Nucleotide Polymorphisms Affect Sweet Taste Receptor Activation by Sweeteners: The SWEET Project” (Nutrients, 2025).
Read-outs that look alike come from different tables or passages of the source. Each block holds one molecule with its values, some of them ahead of it. No end group written: not given here.

Molecular target: T1, human TAS1R2-WT/TAS1R3-A735T (Homo sapiens, UniProt Q7RTX0+Q8TE23, A735T)
T1 construct: expressed in transfected cells; host or cells: HEK293T stably expressing Gα16gust44
T1 sequence (Q8TE23 20-839): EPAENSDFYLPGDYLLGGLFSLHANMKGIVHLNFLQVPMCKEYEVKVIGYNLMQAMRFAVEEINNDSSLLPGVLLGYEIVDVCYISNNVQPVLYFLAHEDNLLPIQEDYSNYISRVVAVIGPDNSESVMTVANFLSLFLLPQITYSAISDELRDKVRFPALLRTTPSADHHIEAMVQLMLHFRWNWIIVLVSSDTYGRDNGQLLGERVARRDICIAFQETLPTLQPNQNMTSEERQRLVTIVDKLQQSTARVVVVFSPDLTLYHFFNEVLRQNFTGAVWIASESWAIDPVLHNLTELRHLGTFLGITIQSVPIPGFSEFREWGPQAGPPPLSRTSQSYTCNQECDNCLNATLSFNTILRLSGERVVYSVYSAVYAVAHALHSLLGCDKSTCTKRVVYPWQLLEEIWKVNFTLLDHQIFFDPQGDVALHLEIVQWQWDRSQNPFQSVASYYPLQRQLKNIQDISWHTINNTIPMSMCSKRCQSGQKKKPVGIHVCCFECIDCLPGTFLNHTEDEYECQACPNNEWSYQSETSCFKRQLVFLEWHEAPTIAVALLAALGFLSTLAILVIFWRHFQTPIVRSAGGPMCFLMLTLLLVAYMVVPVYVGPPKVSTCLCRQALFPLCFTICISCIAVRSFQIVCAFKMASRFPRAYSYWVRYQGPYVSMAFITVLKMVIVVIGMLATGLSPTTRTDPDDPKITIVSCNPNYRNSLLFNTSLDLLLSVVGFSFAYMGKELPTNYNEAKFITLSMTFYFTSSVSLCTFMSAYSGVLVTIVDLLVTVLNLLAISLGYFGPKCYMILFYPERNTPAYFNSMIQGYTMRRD
T1 sequence (Q7RTX0 21-852 A735T): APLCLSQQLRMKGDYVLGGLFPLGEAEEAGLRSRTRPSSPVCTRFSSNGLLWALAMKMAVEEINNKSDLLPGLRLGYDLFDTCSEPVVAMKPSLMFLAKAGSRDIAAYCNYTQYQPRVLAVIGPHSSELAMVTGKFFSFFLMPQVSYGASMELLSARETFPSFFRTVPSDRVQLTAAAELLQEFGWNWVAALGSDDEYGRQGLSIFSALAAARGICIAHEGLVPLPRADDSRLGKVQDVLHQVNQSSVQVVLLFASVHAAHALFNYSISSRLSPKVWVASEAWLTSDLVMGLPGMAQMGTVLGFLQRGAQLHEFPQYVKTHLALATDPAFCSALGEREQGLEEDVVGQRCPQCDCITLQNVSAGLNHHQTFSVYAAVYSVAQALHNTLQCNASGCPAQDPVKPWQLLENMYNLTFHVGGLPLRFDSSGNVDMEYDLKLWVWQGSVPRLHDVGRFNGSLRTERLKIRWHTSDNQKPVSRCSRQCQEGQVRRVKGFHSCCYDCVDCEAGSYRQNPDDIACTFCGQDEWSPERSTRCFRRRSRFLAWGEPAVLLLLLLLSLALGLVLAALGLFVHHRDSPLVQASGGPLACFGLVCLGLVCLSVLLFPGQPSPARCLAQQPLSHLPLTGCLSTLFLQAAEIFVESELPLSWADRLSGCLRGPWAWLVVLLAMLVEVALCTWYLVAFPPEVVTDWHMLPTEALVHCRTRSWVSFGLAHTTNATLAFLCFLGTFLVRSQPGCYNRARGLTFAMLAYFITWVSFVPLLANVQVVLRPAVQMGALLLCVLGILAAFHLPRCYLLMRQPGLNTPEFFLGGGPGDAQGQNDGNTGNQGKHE
Assay: Calcium mobilisation assay, TAS1R2-WT with TAS1R3 variant A735T
Format: cell-based
Details: for Max ΔF/F0: maximal signal amplitude
From the text: The coding sequences for TAS1R2 and TAS1R3 were commercially synthesised, and the human codon was optimised for expression in human cells. The coding sequences of human TAS1R2 and TAS1R3 were subcloned and inserted into the mammalian expression vectors pcDNA6/myc-HisA and pcDNA4/myc-HisA (Invitrogen; Thermo Fisher Scientific; Illkirch, France) between the EcoRI and NotI restriction sites, generating the plasmids pcDNA6-TAS1R2 and pcDNA4-TAS1R3, respectively. To increase protein expression in mammalian cells, an upstream start codon was used, which was a sequence called MAX, corresponding to the QBI SP163 element also described in pcDNA4-HisMax (Invitrogen; Thermo Fisher Scientific; Illkirch, France). To measure the expression level of the receptor by immunohistochemistry, we used the FLAG sequence ([…]) in the C-terminal position, which encodes the FLAG tag epitope. SNP variants of TAS1R2 and TAS1R3 were constructed based on […], respectively, using site-directed mutagenesis (Genewiz; Leipzig, Germany).
The HEK293T cells were kindly provided by Jay P. Slack (Givaudan Flavors Corporation; Cincinnati, OH, USA). HEK293T cells stably transfected with Gα16gust44 [43, 67] were seeded in poly-D-lysine-coated clear-bottom black 96-well plates (0.35 × 10^5 cells/well) in high-glucose DMEM supplemented with 2 mM GlutaMAX, 10% dialysed foetal bovine serum with penicillin/streptomycin and G418 (400 μg/mL) at 37 °C and 6.3% CO2 in a humidified atmosphere as previously reported. […] As a negative control, HEK293T cells were mock-transfected with the empty expression vector. After a further 24 h of incubation, the HEK293T cells were washed with C1 buffer (130 mM NaCl, 5 mM KCl, 10 mM HEPES pH 7.4 and 2 mM CaCl2). The 96-well plates containing the cells were then stimulated with sweet-tasting compounds. […] Different concentration ranges were tested depending on the sweet compound injected. The Ca^2+ changes were expressed as fractional changes in fluorescent light intensity: ΔF/F = (F − F0)/F0, where F was the fluorescent light intensity at each point, and F0 was the value of emitted fluorescent light prior to stimulus application. To calculate dose–response relationships, the changes in fluorescence upon stimulus application were averaged, mock-subtracted and baseline-corrected. The dose–response data obtained were adjusted using a 4-parameter logistic equation. The half-maximal effective concentrations (EC50 values) and maximal signal amplitudes were calculated using SigmaPlot software (version 15.0) (Systat Software; San Jose, CA, USA).
For in vitro calcium mobilisation assay performed on hTAS1R2-SNPs, hTAS1R3-SNPs and mTAS1R3-I60T, 6 to 7 concentrations were tested for each sweet compound, plus buffer alone. All concentration–receptor combinations were measured in duplicate, and each experiment was repeated at least 4 times (8 wells/concentration). Results were expressed for each concentration as ΔF/F mean ± SEM and represented as dose–response curves.

Molecule: CC1=CC(=O)NS(=O)(=O)O1 [Acesulfame K, acesulfame K]
R1 = Variant EC50/WT EC50: 1.1
Max ΔF/F0: 0.47 ± 0.02
EC50 (read-out: EC50): 685 ± 56 µM

Molecule: O=S(=O)(O)NC1CCCCC1 [Cyclamate, cyclamate]
EC50 (read-out: EC50): 1870 ± 32 µM

Molecule: C[C@H](CC[C@@H](O[C@@H]1O[C@H](CO[C@@H]2O[C@H](CO)[C@@H](O)[C@H](O)[C@H]2O)[C@@H](O)[C@H](O)[C@H]1O[C@@H]1O[C@H](CO)[C@@H](O)[C@H](O)[C@H]1O)C(C)(C)O)[C@H]1CC[C@@]2(C)[C@@H]3CC=C4[C@@H](CC[C@H](O[C@@H]5O[C@H](CO[C@@H]6O[C@H](CO)[C@@H](O)[C@H](O)[C@H]6O)[C@@H](O)[C@H](O)[C@H]5O)C4(C)C)[C@]3(C)[C@H](O)C[C@]12C [Mogroside V, mogroside V]
R1 = Variant EC50/WT EC50: 0.9
Max ΔF/F0: 1.17 ± 0.03
EC50 (read-out: EC50): 28.7 ± 2.2 µM

Molecule: COc1ccc(CCC(=O)c2c(O)cc(O[C@@H]3O[C@H](CO)[C@@H](O)[C@H](O)[C@H]3O[C@@H]3O[C@@H](C)[C@H](O)[C@@H](O)[C@H]3O)cc2O)cc1O [NHDC, neohesperidin dihydrochalcone]
R1 = Variant EC50/WT EC50: 0.8
Max ΔF/F0: 1.00 ± 0.01
EC50 (read-out: EC50): 42.2 ± 1.4 µM

Molecule: COC(=O)[C@H](Cc1ccccc1)NC(=O)[C@H](CC(=O)O)NCCC(C)(C)C [Neotame]
R1 = Variant EC50/WT EC50: 0.8
Max ΔF/F0: 0.61 ± 0.02
EC50 (read-out: EC50): 0.93 ± 0.07 µM

Molecule: C=C(C)[C@@H]1CC=C(/C=N/O)CC1 [Perillartine, perillartine]
R1 = Variant EC50/WT EC50: 0.9
Max ΔF/F0: 1.56 ± 0.23
EC50 (read-out: EC50): 12.6 ± 5.9 µM

Molecule: C=C1C[C@@]23CC[C@H]4[C@@](C)(CCC[C@@]4(C)C(=O)O[C@@H]4O[C@H](CO)[C@@H](O)[C@H](O[C@@H]5O[C@H](CO)[C@@H](O)[C@H](O)[C@H]5O)[C@H]4O[C@@H]4O[C@H](CO)[C@@H](O)[C@H](O)[C@H]4O)[C@@H]2CC[C@]1(O[C@@H]1O[C@H](CO)[C@@H](O)[C@H](O[C@@H]2O[C@H](CO)[C@@H](O)[C@H](O)[C@H]2O)[C@H]1O[C@@H]1O[C@H](CO)[C@@H](O)[C@H](O)[C@H]1O)C3 [Rebaudioside M, rebaudioside M]
R1 = Variant EC50/WT EC50: 0.6
Max ΔF/F0: 1.24 ± 0.04
EC50 (read-out: EC50): 23 ± 1.9 µM

The remaining lines, values ahead:

R1 = Variant EC50/WT EC50: 1.4
Max ΔF/F0: 0.70 ± 0.01
EC50 (read-out: EC50): 151 ± 4 µM
Molecule: OC[C@H]1O[C@H](O[C@]2(CCl)O[C@H](CCl)[C@@H](O)[C@@H]2O)[C@H](O)[C@@H](O)[C@H]1Cl [Sucralose]

R1 = Variant EC50/WT EC50: 0.7
EC50 (brazzein): 82.7 ± 14.9 µg/mL
Max ΔF/F0: 0.90 ± 0.05
Molecule: brazzein (QDKCKKVYENYPVSKCQLANQCNYDCKLDKHARSGECFYDEKRNLQCICDYCEY; ends and bridges not checked; cysteine pairing not given here; UniProt P56552 1-54, looked up) [sweet-tasting protein obtained by recombinant production using the yeast Pichia pastoris]

R1 = Variant EC50/WT EC50: 0.7
Max ΔF/F0: 0.70 ± 0.06
Molecule: thaumatin

EC50 (read-out: EC50): 7.2 ± 1.5 µM
B1: thaumatin (protein)
chain: ATFEIVNRCSYTVWAAASKGDAALDAGGRQLNSGESWTINVEPGTKGGKIWARTDCYFDDSGSGICKTGDCGGLLRCKRFGRPPTTLAEFSLNQYGKDYIDISNIKGFNVPMDFSPTTRGCRGVRCAADIVGQCPAKLKAPGGGCNDACTVFQTSEYCCTTGKCGPTEYSRFFKRLCPDAFSYVLDKPTTVTCPGSSNYRVTFCPTA
modifications: Eight disulfides
notes: sweet-tasting plant protein, E957
